The results in this text go back to ChEMBL document CHEMBL5126552, “Discovery of small-molecule compounds and natural products against Parkinson's disease: Pathological mechanism and structural modification” (Eur J Med Chem, 2022).

A short description of series [1]: Agonist activity at D2 receptor in mouse MN9D cells assessed as increase in GTPgammaS binding.
The nature of series [2]: Agonist activity at D3 receptor in mouse MN9D cells assessed as increase in GTPgammaS binding.
The target in series [3] is Adenosine receptor A2a (Rattus norvegicus, UniProt P30543). Kind of series: Antagonist activity at rat adenosine A2A receptor.
Sequence of Adenosine receptor A2a (Rattus norvegicus, UniProt P30543) (P30543 whole entry): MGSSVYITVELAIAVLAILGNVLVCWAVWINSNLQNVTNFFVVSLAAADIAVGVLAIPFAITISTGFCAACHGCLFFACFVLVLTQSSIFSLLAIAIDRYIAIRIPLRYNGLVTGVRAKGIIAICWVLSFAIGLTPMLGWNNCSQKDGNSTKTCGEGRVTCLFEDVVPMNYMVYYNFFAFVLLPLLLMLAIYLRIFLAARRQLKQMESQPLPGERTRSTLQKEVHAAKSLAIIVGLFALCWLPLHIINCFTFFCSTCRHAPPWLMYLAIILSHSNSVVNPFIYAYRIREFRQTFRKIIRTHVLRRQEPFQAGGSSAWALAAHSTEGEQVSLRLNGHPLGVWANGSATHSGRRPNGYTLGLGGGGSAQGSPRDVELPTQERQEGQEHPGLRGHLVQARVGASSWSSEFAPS
Series [4] addresses T1, Adenosine receptor A1 (Rattus norvegicus, UniProt P25099).
T1 sequence (P25099 whole entry): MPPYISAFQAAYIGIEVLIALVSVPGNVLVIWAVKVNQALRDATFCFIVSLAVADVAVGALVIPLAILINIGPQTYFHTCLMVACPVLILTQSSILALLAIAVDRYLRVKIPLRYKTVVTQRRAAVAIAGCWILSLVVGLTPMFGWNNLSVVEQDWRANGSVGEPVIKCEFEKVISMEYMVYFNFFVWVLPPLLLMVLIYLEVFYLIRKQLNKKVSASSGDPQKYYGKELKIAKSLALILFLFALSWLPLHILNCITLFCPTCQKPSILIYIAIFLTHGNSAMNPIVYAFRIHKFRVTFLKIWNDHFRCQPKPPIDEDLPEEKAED
Kind of series: Antagonist activity at rat adenosine A1 receptor.

The nature of series [5]: Half life in rat at 3 mg/kg,po. Conditions: in vivo.
Series [6] in a line: in vivo. Conditions: rat, po, 3 mg/kg.
Series [7] concerns the target T2, D(2) dopamine receptor (Homo sapiens, UniProt P14416).
Series [8] concerns the target T3, D(3) dopamine receptor (Homo sapiens, UniProt P35462). Kind of series: Agonist activity at dopamine D3 receptor (unknown origin) assessed as increase in GTPgammaS binding.
Series [9] addresses Adenosine receptor A2a (Homo sapiens, UniProt P29274). Kind of series: Antagonist activity at human adenosine A2A receptor.
Series [10] is described as follows: Agonist activity at rat mGlu4 receptor assessed as increase in calcium flux.
Series [11] is described as follows: in vivo. Conditions: rat, po, 15 mg/kg.
Description: Oral bioavailability in 6-OHDA-unilateral lesioned rat model of Parkinson's disease at 15 mg/kg
Series [12] in a line: Inhibition of Monoamine oxidase in MPTP-induced C57BL/6 mouse assessed as inhibition constant.
Series [13] deals with T4, Amine oxidase [flavin-containing] B (Homo sapiens, UniProt P27338).
T4 sequence (P27338 whole entry): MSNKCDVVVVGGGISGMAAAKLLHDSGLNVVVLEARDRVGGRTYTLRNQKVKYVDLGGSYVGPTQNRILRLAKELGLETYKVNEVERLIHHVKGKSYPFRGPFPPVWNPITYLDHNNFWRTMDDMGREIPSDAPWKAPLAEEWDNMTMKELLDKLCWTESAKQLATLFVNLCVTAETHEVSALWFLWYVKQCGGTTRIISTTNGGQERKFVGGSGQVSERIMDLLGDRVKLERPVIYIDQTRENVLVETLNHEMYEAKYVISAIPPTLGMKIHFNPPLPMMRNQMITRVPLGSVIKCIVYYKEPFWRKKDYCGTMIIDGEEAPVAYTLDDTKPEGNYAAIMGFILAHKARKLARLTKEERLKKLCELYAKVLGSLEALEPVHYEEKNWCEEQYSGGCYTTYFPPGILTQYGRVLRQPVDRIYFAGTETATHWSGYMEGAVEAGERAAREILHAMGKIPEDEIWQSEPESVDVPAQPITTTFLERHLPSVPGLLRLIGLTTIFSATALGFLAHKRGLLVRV
Kind of series: Inhibition of human MAO-B.

Series [14] in a line: Displacement of [3H]-spiperone from D2 receptor in rat striatum incubated for 90 mins by competitive radioligand binding based scintillation counter analysis.
Series [15] is described as follows: Displacement of [3H]-SCH23390 from D1 receptor in rat striatum incubated for 30 mins by competitive radioligand binding based scintillation counter analysis.
In series [16] the target is T5, Adenosine receptor A1 (Homo sapiens, UniProt P30542).
T5 sequence (P30542 whole entry): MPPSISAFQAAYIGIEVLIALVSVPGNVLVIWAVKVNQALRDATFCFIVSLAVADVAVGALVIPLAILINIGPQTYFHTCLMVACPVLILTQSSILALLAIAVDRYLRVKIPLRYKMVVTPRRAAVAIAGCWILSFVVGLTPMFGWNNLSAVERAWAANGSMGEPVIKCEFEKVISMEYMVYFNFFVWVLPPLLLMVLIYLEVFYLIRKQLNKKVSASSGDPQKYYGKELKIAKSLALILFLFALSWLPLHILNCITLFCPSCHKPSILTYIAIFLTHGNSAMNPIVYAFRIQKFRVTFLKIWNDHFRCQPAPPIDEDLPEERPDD
Description: Antagonist activity at human adenosine A1 receptor

A short description of a further series: animal or person. Conditions: Mus musculus, po, 6 h, read-out: INH.
Series [17] is described as follows: Plasma concentration in 6-OHDA-unilateral lesioned mouse model of Parkinson's disease at 50 mg/kg,ip measured after 4 hrs.
Series [18] can be described thus: Drug concentration in 6-OHDA-unilateral lesioned mouse model of Parkinson's disease assessed as brain concentration at 50 mg/kg,ip measured after 4 hrs.
The nature of series [19]: Metabolic stability at human liver microsomes assessed as intrinsic clearance.
The nature of series [20]: Metabolic stability at human liver microsomes assessed as half life.
In series [21] the target is T2, D(2) dopamine receptor. The source holds these as a separate data set.
Description: Agonist activity at dopamine D2 receptor (unknown origin)
Series [22] in a line: Inhibition of c-Jun phosphorylation in streptozotocin stimulated rat INS1 cells using TMB as substrate incubated for 16 hrs by microplate reader assay. Conditions: INS1, 16 h.
Series [23] concerns the target T3, D(3) dopamine receptor. Kind of series: Agonist activity at dopamine D3 receptor (unknown origin).

Molecules are shown by their SMILES.

T2 sequence (P14416 whole entry): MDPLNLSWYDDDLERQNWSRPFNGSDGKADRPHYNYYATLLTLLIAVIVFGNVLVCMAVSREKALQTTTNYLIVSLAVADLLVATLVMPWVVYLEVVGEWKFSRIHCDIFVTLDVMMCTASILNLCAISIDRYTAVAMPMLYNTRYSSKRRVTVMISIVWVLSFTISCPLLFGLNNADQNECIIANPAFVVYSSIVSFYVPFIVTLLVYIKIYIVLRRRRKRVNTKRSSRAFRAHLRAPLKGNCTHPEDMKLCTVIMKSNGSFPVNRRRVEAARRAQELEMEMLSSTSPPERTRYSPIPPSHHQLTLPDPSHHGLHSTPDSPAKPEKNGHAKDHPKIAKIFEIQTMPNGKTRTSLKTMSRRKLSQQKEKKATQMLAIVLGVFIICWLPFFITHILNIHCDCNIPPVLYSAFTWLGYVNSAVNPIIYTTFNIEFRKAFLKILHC
T3 sequence (P35462 whole entry): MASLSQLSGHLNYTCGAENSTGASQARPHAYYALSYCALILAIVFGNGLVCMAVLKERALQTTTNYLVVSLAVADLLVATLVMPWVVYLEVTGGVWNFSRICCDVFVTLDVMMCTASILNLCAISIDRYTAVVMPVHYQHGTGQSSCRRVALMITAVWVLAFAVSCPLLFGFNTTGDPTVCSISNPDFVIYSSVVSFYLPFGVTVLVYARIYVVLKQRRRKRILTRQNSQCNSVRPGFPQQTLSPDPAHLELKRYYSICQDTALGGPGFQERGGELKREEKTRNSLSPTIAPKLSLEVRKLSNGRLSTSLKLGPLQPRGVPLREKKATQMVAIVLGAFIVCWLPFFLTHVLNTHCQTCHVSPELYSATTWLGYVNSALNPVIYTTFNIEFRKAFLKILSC
Sequence of Adenosine receptor A2a (Homo sapiens, UniProt P29274) (P29274 whole entry): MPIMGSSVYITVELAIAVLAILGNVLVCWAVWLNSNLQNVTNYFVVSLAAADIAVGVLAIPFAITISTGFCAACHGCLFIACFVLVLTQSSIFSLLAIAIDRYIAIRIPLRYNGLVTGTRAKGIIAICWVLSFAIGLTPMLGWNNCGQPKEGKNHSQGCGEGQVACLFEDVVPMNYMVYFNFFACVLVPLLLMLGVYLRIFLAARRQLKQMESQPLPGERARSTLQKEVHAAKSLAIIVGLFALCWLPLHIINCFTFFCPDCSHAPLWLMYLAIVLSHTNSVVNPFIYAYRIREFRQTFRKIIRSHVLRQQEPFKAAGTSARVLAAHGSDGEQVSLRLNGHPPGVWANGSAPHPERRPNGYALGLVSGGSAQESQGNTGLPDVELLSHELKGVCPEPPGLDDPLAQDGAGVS

For `CCCN(CCN1CCN(c2ccc3[nH]ccc3c2Cl)CC1)[C@H]1CCc2nc(N)sc2C1`, the EC50 in series [1] is 114 nM; in [2], 0.26 nM. `Cc1ccc(-c2cc(-c3cccc(C(=O)N4CCCCC4)c3)nc(N)n2)o1`: the inhibition constant (Ki) on Adenosine receptor A2a [3] came to 9.54 nM; on Adenosine receptor A1 [4] it was 6.34 nM. In series [5], `Cn1nc(C(F)(F)F)c(CN2CCN(c3nc(N)n4nc(-c5ccco5)nc4n3)CC2)c1Cl` gave a half-life of 30 min. In addition, the bioavailability in the series “in vivo [6]” was determined as 7%. As to `CCCN(CCN1CCN(c2ccc3c(c2)[nH]c2ccccc23)CC1)[C@H]1CCc2c(O)cccc2C1`, the results for the concentration for a half-maximal effect (EC50) at D(2) dopamine receptor [7] and at D(3) dopamine receptor [8] were 0.23 nM and 0.87 nM, respectively. In turn, `COC[C@H]1CCCN1c1cc(Nc2ccccn2)nc(-n2cccn2)n1` yielded an inhibition constant Ki at Adenosine receptor A2a [9] of 0.22 nM. For the molecule `Fc1ccc(Nc2n[nH]c3cccnc23)cc1Cl`, the EC50 in [10] is 46 nM. This molecule came in with a bioavailability in the series “in vivo [11]” of 95%.

As to `CC1=C(C)C(=O)c2cc(C)ccc2C1=O`, the inhibition constant Ki in series [12] was 6000 nM. With `COc1ccc(/C(C)=N/NC(=O)c2cc(-c3ccccc3)on2)cc1OC`, the IC50 in series [13] came out at 5.9 nM. As for `CCCN1CCC[C@H]2c3[nH]c4ccccc4c3CC[C@@H]21`, the Ki in [14] was determined as 1.31 nM; in [15], 19.8 nM. For `Nc1nc(N2CCN3CCC[C@@H]3C2)cc2nc(-c3ccco3)nn12`, the inhibitory constant (Ki) stood at 1100 nM at Adenosine receptor A1 [16] and 63 nM at Adenosine receptor A2a [9]. Regarding `C/C(=N\NC(=O)c1cc(-c2ccccc2)on1)c1ccc(C)cc1`, the IC50 in series [13] is 5.1 nM. As for `Cc1cccc(Nc2nc(NCCCO)nc3c2cnn3-c2ccccc2)c1`, the inhibition constant (Ki) at Adenosine receptor A1 [16] was above 540 nM. For `O=C(CCN1CCN(c2cccc(C(F)(F)F)c2)CC1)c1cc(O)c(O)c([N+](=O)[O-])c1`, the inhibition in vivo at 30 mg/kg in “animal or person” amounted to 74%. With `Cc1cc(Oc2nccc3occc23)ccc1-c1c(C)c(=O)[nH]c(=O)n1C`, the concentration at 4 h in series [17] and in series [18] was 100 µM each time. In the case of `CCCN(CCN1CCN(C(=O)c2cc3ccccc3[nH]2)CC1)[C@H]1CCc2nc(N)sc2C1`, the concentration for a half-maximal effect (EC50) in series [1] is 2.96 nM; in series [2], 1.26 nM. `CO[C@@H]1CCN(c2cccc(-c3nc(-n4nc(C)cc4C)nc(N)c3C#N)n2)C1`: in [19], the CLint scaled was 2.04 L/h/kg. Further, the half-life in [20] turned out to be 53 min. `CCCN(CCN1CCN(c2ccc(-c3ccccn3)nc2)CC1)[C@H]1CCc2nc(N)sc2C1` showed an EC50 on D(2) dopamine receptor [21] of 51.6 nM. Take `C#CCN1CCC[C@H]2c3[nH]c4ccccc4c3CC[C@@H]21`: the Ki in series [14] came to 1.09 nM; in series [15], 2.15 nM. As for `Cc1ccc(-c2ncn(-c3ccc(Nc4nccc(-c5cccc(N6CCOCC6)c5)n4)cc3)n2)cn1`, in [22], the IC50 came out at 216 nM. Consider `CCCN(CCN1CCN(c2ccccc2)CC1)[C@H]1CCc2ccc(O)cc2C1`, for which the concentration for a half-maximal effect (EC50) is 9.98 nM at D(2) dopamine receptor [21] and 2.91 nM on D(3) dopamine receptor [23]. Take `Nc1nc(NC[C@H]2CCCN2Cc2ccnc(Cl)c2)nc2nc(-c3ccco3)nn12`: the values for the Ki at Adenosine receptor A2a [3] and on Adenosine receptor A1 [4] were 10 nM and above 250 nM, respectively. In [13], `CNCc1cc(=O)oc2c(O)c(O)ccc12` gave an IC50 of 12400 nM.
